Experimental data reported in PubChem BioAssay AID248 (DTP/NCI, 2004).
Inconclusive results and toxic doses are left out. No stated cut-off is given here; in the data, active means T/C of 150% or more; inactive means T/C below 125%.

Tested on: L1210 leukemia ip in BDF1 mice, survival T/C
Assay: NCI In Vivo Anticancer Drug Screen. Data for tumor model L1210 Leukemia (intraperitoneal) in B6D2F1 (BDF1) mice
Settings: endpoint: mean survival time, higher = longer survival
Outline: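 Survival endpoint. Drug-treated group vs vehicle group, expressed as T divided by C. Tumor passaged by transplantation.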

[1] = dose: 100.0 mg/kg/injection, schedule: Q04DX002 (ip), vehicle: saline with Tween-80
[2] = dose: 200.0 mg/kg/injection, schedule: Q04DX002 (ip), vehicle: saline with Tween-80
[3] = dose: 400.0 mg/kg/injection, schedule: Q04DX002 (ip), vehicle: saline with Tween-80
[4] = dose: 100.0 mg/kg/injection, schedule: Q04DX003 (ip), vehicle: saline with Tween-80
[5] = dose: 25.0 mg/kg/injection, schedule: Q04DX003 (ip), vehicle: saline with Tween-80
[6] = dose: 50.0 mg/kg/injection, schedule: Q04DX003 (ip), vehicle: saline with Tween-80

Measured: T/C

COc1ccc(CCN2C(=O)c3cccc4c(Sc5ccccc5[N+](=O)[O-])ccc(c34)C2=O)cc1OC
inactive: [1] 90 % of control | [2] 111 % of control | [3] 93 % of control

Nc1ccc(C(=O)N/N=C/c2ccc(Cl)cc2Cl)cc1
inactive: dose: 100.0 mg/kg/injection, schedule: Q04DX002 (ip), vehicle: Klucel (hydroxypropylcellulose) (HPC) 93 % of control | dose: 200.0 mg/kg/injection, schedule: Q04DX002 (ip), vehicle: Klucel (hydroxypropylcellulose) (HPC) 93 % of control

CN1C(c2ccc(Cl)cc2)OCC1(C)C (configuration not stated)
inactive: dose: 100.0 mg/kg/injection, schedule: Q04DX003 (ip), vehicle: saline sonified 90 % of control | dose: 200.0 mg/kg/injection, schedule: Q04DX003 (ip), vehicle: saline sonified 92 % of control

C[n+]1cccc(S(=O)(=O)[O-])c1
inactive: dose: 100.0 mg/kg/injection, schedule: Q04DX003 (ip), vehicle: saline 104 % of control | dose: 200.0 mg/kg/injection, schedule: Q04DX003 (ip), vehicle: saline 101 % of control | dose: 400.0 mg/kg/injection, schedule: Q04DX003 (ip), vehicle: saline 101 % of control

CC1(O)C=Cc2ccccc21 (configuration not stated)
inactive: [4] 100 % of control | dose: 200.0 mg/kg/injection, schedule: Q04DX003 (ip), vehicle: saline with Tween-80 95 % of control

Clc1nc(Cl)c(CBr)c(Cl)n1
inactive: dose: 1.0 mg/kg/injection, schedule: Q01DX Z (ip), vehicle: carboxymethylcellulose (CMC) 96 % of control | dose: 2.0 mg/kg/injection, schedule: Q01DX Z (ip), vehicle: carboxymethylcellulose (CMC) 96 % of control | dose: 4.0 mg/kg/injection, schedule: Q01DX Z (ip), vehicle: carboxymethylcellulose (CMC) 96 % of control | dose: 8.0 mg/kg/injection, schedule: Q01DX Z (ip), vehicle: carboxymethylcellulose (CMC) 94 % of control | dose: 10.0 mg/kg/injection, schedule: Q01DX001 (ip), vehicle: carboxymethylcellulose (CMC) 96 % of control | dose: 16.0 mg/kg/injection, schedule: Q01DX009 (ip), vehicle: carboxymethylcellulose (CMC) 103 % of control | dose: 20.0 mg/kg/injection, schedule: Q01DX001 (ip), vehicle: carboxymethylcellulose (CMC) 93 % of control | dose: 40.0 mg/kg/injection, schedule: Q01DX001 (ip), vehicle: carboxymethylcellulose (CMC) 93 % of control

CC(C)(C)CCSC(=N)N
inactive: [5] 98 % of control | [6] 102 % of control | [4] 96 % of control

NC(=S)NNc1ccccc1
inactive: [1] 105 % of control | [2] 105 % of control

Clc1ccc2c(c1)Cc1cc(Cl)cc(Cl)c1-2
inactive: dose: 100.0 mg/kg/injection, schedule: Q04DX003 (ip), vehicle: Klucel (hydroxypropylcellulose) (HPC) 98 % of control | dose: 200.0 mg/kg/injection, schedule: Q04DX003 (ip), vehicle: Klucel (hydroxypropylcellulose) (HPC) 100 % of control | dose: 400.0 mg/kg/injection, schedule: Q04DX003 (ip), vehicle: Klucel (hydroxypropylcellulose) (HPC) 96 % of control

CCCCCCCCCC(=O)Oc1nncc(=O)[nH]1
inactive: dose: 50.0 mg/kg/injection, schedule: Q01DX009 (ip), vehicle: saline 87 % of control | dose: 100.0 mg/kg/injection, schedule: Q01DX009 (ip), vehicle: saline 97 % of control | dose: 200.0 mg/kg/injection, schedule: Q01DX009 (ip), vehicle: saline 104 % of control

Cc1cc(Br)cc(C(=O)Cl)c1O
inactive: [1] 92 % of control | [2] 96 % of control | [3] 100 % of control

C[N+](C)(C)CCCCCCCC[N+](C)(C)CCCCCCCCCC[N+](C)(C)CCCCCCCC[N+](C)(C)C
inactive: dose: 23.0 micrograms/kg/injection, schedule: Q04DX003 (ip), vehicle: saline 97 % of control | dose: 45.0 micrograms/kg/injection, schedule: Q04DX003 (ip), vehicle: saline 105 % of control | dose: 90.0 micrograms/kg/injection, schedule: Q04DX003 (ip), vehicle: saline 103 % of control

N#CC1(C#N)C2C=CC(C3CC=CC32)C1(C#N)C#N (configuration not stated)
inactive: dose: 12.5 mg/kg/injection, schedule: Q01DX009 (ip), vehicle: saline with Tween-80 101 % of control | dose: 25.0 mg/kg/injection, schedule: Q01DX009 (ip), vehicle: saline with Tween-80 97 % of control | [5] 108 % of control | [6] 105 % of control | [4] 93 % of control
